{"source": "patent US20020137152A1", "about": "“Fermentation process for epothilones” (priority 2000, published 2002)", "key": {"eukaryotic cells": {"tested_on": "eukaryotic cells", "conditions": "cited from earlier work; for cytotoxicity relative to epothilones A and B: desoxy counterparts compared with epothilones A and B; for cytotoxic activity against eukaryotic cells: Hofle et al., 1996"}, "[1]": {"tested_on": "breast and colon tumor cell lines", "conditions": "Hofle et al., 1996; cited from earlier work"}, "[2]": {"tested_on": "Sorangium cellulosum strain So ce 90", "test": "Production of epothilones A, B, C and D by So ce 90 fermented in the presence of a P450 inhibitor, HPLC quantitation", "format": "cell-based", "conditions": "10 mM metyrapone in production medium, 7 days", "experimental": "(§1) To prepare a seed culture, transfer cells from the DSM 6773 ampoule into a 250 mL baffled Erleneyer flask with 38 mm silicone foam closures containing 50 mL of sterile soybean meal. Soybean meal contains potato starch (Product No. S-2004, Sigma), 8 g/L; defatted soybean meal (Type 4890, Archer Daniels Midland), 2 g/L; yeast extract (Product No. BP 1422-500, Fisher Biotech), 2g/L; Iron (III) sodium salt EDTA (Product No. EDFS, Sigma), 0.008 g/L; MgSO4.7H20 (Product No. M-5921, Sigma), 1 g/L; CaCl2.2H20 (Product No. C-3991, Sigma), 1 g/L; glucose (Product No. G-5400, Sigma), 2g/L; HEPES buffer (Product No. H-3375, Sigma), 11.5 g/L. Use deionized water, and adjust pH to 7.4 with 10% KOH. Sterilize the flasks by autoclaving at 121° C. for at least 30 minutes. After autoclaving, add 2-3 drops of antifoam B to prevent foaming. Incubate the culture at 32° C. in a 250 RPM shaker for 4 days. After 4 days, the culture should appear an orange color. Production cultures were prepared by sterilizing 50 mL of sterile soybean meal medium and 1 g of Amberlite XAD-16 absorption resin in a 250 mL baffled Erlenmeyer flask. Metyrapone (Product No. 856525, Sigma) is prepared by reconstituting to a final concentration of 2.5 M with 50:50 (v/v) DMSO:H2O. Metyrapone was added to a final concentration of 5 mM and 10 mM in each flask. 5 mL of the seed culture was inoculated to each flask and incubated at 30° C. in a shaker at 250 RPM for 7 days.\nTo extract epothilone C and/or D, transfer the culture into a 50 mL centrifuge tube (Product no. 21008-178, VWR Scientific Products). Decant the excess medium in the centrifuge tube without pouring off any of the resin. Wash the XAD-16 resin with 25 mL of H2O and allow the XAD-16 resin to settle by gravity in the tube. Carefully decant the H2O, and add 20 mL of 100% methanol to the tube. Place the centrifuge tube on a shaker at 175 RPM for 20-30 minutes to extract the epothilone products from the resin. Allow the XAD-16 pellets to settle, and transfer 2 mL using a pipette to a HPLC tube (Product nos. C4010-13, C4010-60A, National Scientific Company). Quantitation of epothilones C and D was performed by HPLC analysis with UV-DAD detection at 250 nm. 50 uL of the methanol extract was injected across a 4.6×10 mm guard column (Inertsil, C18 OD 53, 5um) and a 4.6 x 150 mm […] (Inertisil, C18 OD 53, 5 um). The assay method was isocratic, eluting with 60% acetonitrile and 40% water for 18 minutes at a flow rate of 1 ml/min. Under these conditions, epothilone C was detected at 10.3 minutes and epothilone D was detected at 13.0 minutes. The results showing the highest production of epothilones C and D, and the lowest production of epothilones A and B, in the presence of metyrapone and various other inhibitors is shown in FIG. 1. […]"}, "[3]": {"tested_on": "Sorangium cellulosum strain So ce 90", "test": "Effect of metyrapone on growth of So ce 90 (FIG. 2)", "format": "cell-based", "conditions": "metyrapone at 5 mM and 10 mM", "experimental": "as §1, with “Production cultures were prepared by sterilizing 50 mL of sterile soybean meal medium and 1 g of Amberlite XAD-16 absorption resin in a 250 mL baffled Erlenmeyer flask. Metyrapone (Product No. 856525, Sigma) is prepared by reconstituting to a final concentration of 2.5 M with 50:50 (v/v) DMSO:H2O. Metyrapone was added to a final concentration of 5 mM and 10 mM in each flask. 5 mL of the seed culture was inoculated to each flask and incubated at 30° C. in a shaker at 250 RPM for 7 days.” left out\nTo extract epothilone C and/or D, transfer the culture into a 50 mL centrifuge tube (Product no. 21008-178, VWR Scientific Products). […] Quantitation of epothilones C and D was performed by HPLC analysis with UV-DAD detection at 250 nm. […] Under these conditions, epothilone C was detected at 10.3 minutes and epothilone D was detected at 13.0 minutes. […]"}, "EpoK": {"target": "T1, EpoK (Sorangium cellulosum, UniProt Q9KIZ4)", "T1 construct": "His6 (six histidine residues); made in house; host or cells: E. coli BL21(DE3) with pREP4-groELS; plasmids pKOS55-121 (N-terminal his) and pKOS55-129 (C-terminal his) in pET22b", "T1 sequence (Q9KIZ4 1-419)": "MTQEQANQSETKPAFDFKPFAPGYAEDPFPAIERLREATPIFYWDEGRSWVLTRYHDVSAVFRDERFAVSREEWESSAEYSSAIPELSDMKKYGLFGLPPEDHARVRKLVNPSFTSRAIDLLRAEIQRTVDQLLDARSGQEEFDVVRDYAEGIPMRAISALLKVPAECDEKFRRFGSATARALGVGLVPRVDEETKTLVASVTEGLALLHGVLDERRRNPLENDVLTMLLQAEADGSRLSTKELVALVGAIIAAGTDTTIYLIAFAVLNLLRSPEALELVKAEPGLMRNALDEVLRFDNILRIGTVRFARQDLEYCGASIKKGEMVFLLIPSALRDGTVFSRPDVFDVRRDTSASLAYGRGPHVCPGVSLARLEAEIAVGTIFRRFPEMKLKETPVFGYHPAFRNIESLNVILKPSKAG", "test": "EpoK assay: conversion of epothilone D to epothilone B by recombinant his-tagged EpoK, LC/MS", "format": "biochemical", "conditions": "30° C., 67 minutes", "text": "This Example describes the construction of E. coli expression vectors for heterologous expression of the Sorangium cellulosum epoK gene. The E. coli produced EpoK enzyme can be used in assays to identify inhibitors for use in the methods of the invention. The epoK gene product was expressed in E. coli as a fusion protein with a polyhistidine tag (his tag). The fusion protein was purified and used to convert epothilone D to epothilone B. This assay can be readily adapted to identify EpoK inhibitors.\nPurification of EpoK was performed as follows. Plasmids pKOS55-121 and pKOS55-129 were transformed into BL21(DE3) containing the groELS expressing plasmid pREP4-groELS (Caspers et al., 1994, Cellular and Molecular Biology 40(5):635-644). The strains were inoculated into 250 mL of M9 medium supplemented with 2 mM MgSO4, 1% glucose, 20 mg thiamine, 5 mg FeCl2, 4 mg CaCl2 and 50 mg levulinic acid. The cultures were grown to an OD600 between 0.4 and 0.6, at which point IPTG was added to 1 mM, and the cultures were allowed to grow for an additional two hours. The cells were harvested and frozen at −80° C. The frozen cells were resuspended in 10 ml of buffer 1 (5 mM imidizole, 500 mM NaCl, and 45 mM Tris pH 7.6) and were lysed by sonicating three times for 15 seconds each on setting 8. The cellular debris was pelleted by centrifugation in an SS-34 rotor at 16,000 rpm for 30 minutes. The supernatant was removed and centrifuged again at 16,000 rpm for 30 minutes. The supernatant was loaded onto a 5 mL nickel column (Novagen), after which the column was washed with 50 mL of buffer 1 (Novagen). EpoK was eluted with a gradient from 5 mM to 1M imidizole. Fractions containing EpoK were pooled and dialyzed twice against 1 L of dialysis buffer (45 mM Tris pH7.6, 0.2 mM DTT, 0.1 mM EDTA, and 20% glycerol). Aliquots were frozen in liquid nitrogen and stored at −80° C. The protein preparations were greater than 90% pure.\nThe EpoK assay was performed as follows. Briefly, reactions consisted of 50 mM Tris (pH7.5), 21 µM spinach ferredoxin, 0.132 units of spinach ferredoxin: NADP^+oxidoreductase, 0.8 units of glucose-6-phosphate dehydrogenase, 1.4 mM NADP, and 7.1 mM glucose-6-phosphate, 100 μM or 200 ,μM epothilone D (a generous gift of S. Danishefsky), and 1.7 ,μM amino terminal his tagged EpoK or 1.6 μM carboxy terminal his-tagged EpoK in a 100 μL volume. The reactions were incubated at 30° C. for 67 minutes and stopped by heating at 90° C. for 2 minutes. The insoluble material was removed by centrifugation, and 50 μL of the supernatant were analyzed by LC/MS. […] In the presence of 200 μM, conversion was 44% and 21%, respectively."}, "[4]": {"conditions": "Chou et al., 1998; cited from earlier work"}, "[5]": {"conditions": "Harris et al., 1999; cited from earlier work"}}}
{"smiles": "C/C(=C\\c1csc(C)n1)[C@@H]1C/C=C\\CCC[C@H](C)[C@H](O)[C@@H](C)C(=O)C(C)(C)[C@@H](O)CC(=O)O1", "note": "[epothilone C]", "values": [{"measurement": "cytotoxicity relative to epothilones A and B", "setting": "eukaryotic cells", "value": "less cytotoxic"}]}
{"smiles": "C/C(=C\\c1csc(C)n1)[C@@H]1C[C@@H]2O[C@]2(C)CCC[C@H](C)[C@H](O)[C@@H](C)C(=O)C(C)(C)[C@@H](O)CC(=O)O1", "note": "[epothilone B]", "values": [{"measurement": "cytotoxic activity against eukaryotic cells", "setting": "eukaryotic cells", "value": "broad cytotoxic activity"}, {"measurement": "activity against breast and colon tumor cell lines", "setting": "[1]", "value": "noticeable activity and selectivity"}]}
{"smiles": "CC(C)(C(=O)c1cccnc1)c1cccnc1", "note": "[metyrapone, 2-methyl-1,2-di-3-pyridyl-1-propanone]", "values": [{"measurement": "epothilone D produced by So ce 90", "setting": "[2]; without inhibitor 0.5 mg/L", "value": 0.1, "unit": "mg/L"}, {"measurement": "epothilone C produced by So ce 90", "setting": "[2]; without inhibitor 1.0 mg/L", "value": 0.5, "unit": "mg/L"}, {"measurement": "epothilone B produced by So ce 90", "setting": "[2]; without inhibitor 1.7 mg/L", "value": 0.3, "unit": "mg/L"}, {"measurement": "epothilone A produced by So ce 90", "setting": "[2]; without inhibitor 3.6 mg/L", "value": 0.9, "unit": "mg/L"}, {"measurement": "effect on growth of So ce 90", "setting": "[3]", "value": "does not detrimentally inhibit the growth"}]}
{"smiles": "C/C1=C/C[C@@H](/C(C)=C/c2csc(C)n2)OC(=O)C[C@H](O)C(C)(C)C(=O)[C@H](C)[C@@H](O)[C@@H](C)CCC1", "note": "[epothilone D]", "values": [{"measurement": "cytotoxicity relative to epothilones A and B", "setting": "eukaryotic cells", "value": "less cytotoxic"}, {"measurement": "conversion of epothilone D to epothilone B", "setting": "EpoK; 100 μM epothilone D, 1.6 μM carboxy terminal his-tagged EpoK", "value": 58, "unit": "%"}, {"measurement": "conversion of epothilone D to epothilone B", "setting": "EpoK; 100 μM epothilone D, 1.7 μM amino terminal his tagged EpoK", "value": 82, "unit": "%"}, {"measurement": "conversion of epothilone D to epothilone B", "setting": "EpoK; 200 μM epothilone D, 1.6 μM carboxy terminal his-tagged EpoK", "value": 21, "unit": "%"}, {"measurement": "conversion of epothilone D to epothilone B", "setting": "EpoK; 200 μM epothilone D, 1.7 μM amino terminal his tagged EpoK", "value": 44, "unit": "%"}, {"measurement": "toxicity among naturally occurring epothilones studied", "setting": "[4]", "value": "lowest toxicity"}, {"measurement": "efficacy among naturally occurring epothilones studied", "setting": "[5]", "value": "greatest efficacy"}]}
{"smiles": "C/C(=C\\c1csc(C)n1)[C@@H]1C[C@@H]2O[C@@H]2CCC[C@H](C)[C@H](O)[C@@H](C)C(=O)C(C)(C)[C@@H](O)CC(=O)O1", "note": "[epothilone A]", "values": [{"measurement": "cytotoxic activity against eukaryotic cells", "setting": "eukaryotic cells", "value": "broad cytotoxic activity"}, {"measurement": "activity against breast and colon tumor cell lines", "setting": "[1]", "value": "noticeable activity and selectivity"}]}
